From PMC7381729, “A new class of PentixaFor- and PentixaTher-based theranostic agents with enhanced CXCR4-targeting efficiency” (Theranostics, 2020)
Read-outs that look alike come from different tables or passages of the source. Where a SMILES comes first, the peptide text is derived from it. Side-chain parts run from the residue outwards. [ ]: non-standard residue; d: D form. The star is where a group is joined. DOTA = O=C(O)CN1CCN(CC(=O)O)CCN(CC(=O)*)CCN(CC(=O)O)CC1; 2Nal = N[C@@H](Cc1ccc2ccccc2c1)C(=O)O; dNMeOrn = CN[C@H](CCCN)C(=O)O; 4Abz = Nc1ccc(C(=O)O)cc1

Experiment: Biodistribution in Daudi xenograft bearing mice
Assay type: in vivo, mouse
Settings: female, CB-17 SCID, mouse, iv, total radioactivity; for tissue uptake at 6 h: 6h p.i.; for tissue uptake at 6 h / tissue uptake at 48 h: i.v., n=4-5; for tissue uptake at 6 h / tissue uptake at 48 h / tissue to tissue ratio at 48 h: means ± SD; for tissue uptake at 48 h / tissue to tissue ratio at 48 h: 48h p.i.; for tissue uptake at 1 h: 1h p.i., coinjection of 50 µg AMD3100/animal, n=1; for tissue to tissue ratio at 48 h: n=4-5 animals
In short: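 Female CB-17 SCID mice with Daudi xenografts (n=4-5) received 5-10 MBq (0.08-0.11 nmol) ^68Ga- or ^177Lu-labelled ligand i.v.; blocking by coinjected 50 µg AMD3100. Organs counted by γ-counter at 1, 6 and 48 h p.i.; %ID/g (mean ± SD).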

[1] = adrenals, read-out: Biodistribution adrenals
[2] = blood, read-out: Biodistribution blood
[3] = colon, read-out: Biodistribution colon
[4] = femur, read-out: Biodistribution femur
[5] = heart, read-out: Biodistribution heart
[6] = kidney, read-out: Biodistribution kidney
[7] = liver, read-out: Biodistribution liver
[8] = lung, read-out: Biodistribution lung
[9] = muscle, read-out: Biodistribution muscle
[10] = pancreas, read-out: Biodistribution pancreas
[11] = small intestine, read-out: Biodistribution small intestine
[12] = spleen, read-out: Biodistribution spleen
[13] = stomach, read-out: Biodistribution stomach
[14] = tumor (Daudi xenograft), read-out: Biodistribution tumor (Daudi xenograft)

- tissue uptake at 6 h [1]: 0.51 ± 0.12 %ID/g
- tissue uptake at 48 h [1]: 0.33 ± 0.08 %ID/g
- tissue uptake at 1 h (adrenals, with AMD3100, 50 µg per animal, coinjected (CXCR4 competition), read-out: Biodistribution adrenals, + AMD3100): 1.22 %ID/g
- tissue uptake at 6 h [2]: 0.05 ± 0.01 %ID/g
- tissue uptake at 48 h [2]: 0.01 %ID/g
- tissue uptake at 1 h (blood, with AMD3100, 50 µg per animal, coinjected (CXCR4 competition), read-out: Biodistribution blood, + AMD3100): 1.9 %ID/g
- tissue uptake at 6 h [3]: 0.65 ± 0.3 %ID/g
- tissue uptake at 48 h [3]: 0.44 ± 0.22 %ID/g
- tissue uptake at 1 h (colon, with AMD3100, 50 µg per animal, coinjected (CXCR4 competition), read-out: Biodistribution colon, + AMD3100): 0.74 %ID/g
- tissue uptake at 6 h [4]: 0.3 ± 0.05 %ID/g
- tissue uptake at 48 h [4]: 0.29 ± 0.05 %ID/g
- tissue uptake at 1 h (femur, with AMD3100, 50 µg per animal, coinjected (CXCR4 competition), read-out: Biodistribution femur, + AMD3100): 0.74 %ID/g
- tissue uptake at 1 h (heart, read-out: Biodistribution heart, + AMD3100): 1.07 %ID/g
- tissue uptake at 6 h [5]: 0.13 ± 0.02 %ID/g
- tissue uptake at 48 h [5]: 0.08 ± 0.01 %ID/g
- tissue uptake at 6 h [6]: 7.1 ± 2.06 %ID/g
- tissue uptake at 48 h [6]: 3.05 ± 0.15 %ID/g
- tissue uptake at 1 h (kidney, with AMD3100, 50 µg per animal, coinjected (CXCR4 competition), read-out: Biodistribution kidney, + AMD3100): 10.3 %ID/g
- tissue uptake at 1 h (liver, read-out: Biodistribution liver, + AMD3100): 5.46 %ID/g
- tissue uptake at 6 h [7]: 11.3 ± 2.83 %ID/g
- tissue uptake at 48 h [7]: 8.99 ± 1.62 %ID/g
- tissue uptake at 1 h (lung, read-out: Biodistribution lung, + AMD3100): 3.34 %ID/g
- tissue uptake at 6 h [8]: 0.27 ± 0.06 %ID/g
- tissue uptake at 48 h [8]: 0.19 ± 0.08 %ID/g
- tissue uptake at 6 h [9]: 0.04 ± 0.01 %ID/g
- tissue uptake at 48 h [9]: 0.02 %ID/g
- tissue uptake at 1 h (muscle, with AMD3100, 50 µg per animal, coinjected (CXCR4 competition), read-out: Biodistribution muscle, + AMD3100): 0.38 %ID/g
- tissue uptake at 6 h [10]: 0.08 ± 0.02 %ID/g
- tissue uptake at 48 h [10]: 0.07 ± 0.01 %ID/g
- tissue uptake at 1 h (pancreas, with AMD3100, 50 µg per animal, coinjected (CXCR4 competition), read-out: Biodistribution pancreas, + AMD3100): 0.61 %ID/g
- tissue uptake at 6 h [11]: 0.3 ± 0.06 %ID/g
- tissue uptake at 48 h [11]: 0.16 ± 0.11 %ID/g
- tissue uptake at 1 h (small intestine, with AMD3100, 50 µg per animal, coinjected (CXCR4 competition), read-out: Biodistribution small intestine, + AMD3100): 1.36 %ID/g
- tissue uptake at 6 h [12]: 1.41 ± 0.24 %ID/g
- tissue uptake at 48 h [12]: 1.06 ± 0.33 %ID/g
- tissue uptake at 1 h (spleen, with AMD3100, 50 µg per animal, coinjected (CXCR4 competition), read-out: Biodistribution spleen, + AMD3100): 1.11 %ID/g
- tissue uptake at 6 h [13]: 0.25 ± 0.07 %ID/g
- tissue uptake at 48 h [13]: 0.19 ± 0.13 %ID/g
- tissue uptake at 1 h (stomach, with AMD3100, 50 µg per animal, coinjected (CXCR4 competition), read-out: Biodistribution stomach, + AMD3100): 2.46 %ID/g
- tissue uptake at 6 h [14]: 13.6 ± 3.33 %ID/g
- tissue uptake at 48 h [14]: 8.81 ± 0.99 %ID/g
- tissue uptake at 1 h (tumor (Daudi xenograft), with AMD3100, 50 µg per animal, coinjected (CXCR4 competition), read-out: Biodistribution tumor, + AMD3100): 3.04 %ID/g
- tissue to tissue ratio at 48 h (tumor / blood, read-out: Tumor/organ ratio t/blood): 949 ± 146
- tissue to tissue ratio at 48 h (tumor / colon, read-out: Tumor/organ ratio t/colon): 20 ± 10
- tissue to tissue ratio at 48 h (tumor / heart, read-out: Tumor/organ ratio t/heart): 111 ± 20
- tissue to tissue ratio at 48 h (tumor / kidney, read-out: Tumor/organ ratio t/kidney): 2.9 ± 0.4
- tissue to tissue ratio at 48 h (tumor / liver, read-out: Tumor/organ ratio t/liver): 1 ± 0.2
- tissue to tissue ratio at 48 h (tumor / lung, read-out: Tumor/organ ratio t/lung): 47 ± 22
- tissue to tissue ratio at 48 h (tumor / muscle, read-out: Tumor/organ ratio t/muscle): 413 ± 100
- tissue to tissue ratio at 48 h (tumor / small intestine, read-out: Tumor/organ ratio t/small intestine): 55 ± 36
- tissue to tissue ratio at 48 h (tumor / spleen, read-out: Tumor/organ ratio t/spleen): 8.3 ± 2.8
- tissue to tissue ratio at 48 h (tumor / stomach, read-out: Tumor/organ ratio t/stomach): 46 ± 32
Structure (SMILES): C[C@@H](NC(=O)[C@@H](CCCNC(=N)N)NC(=O)CN1CCN(CC(=O)O)CCN(CC(=O)O)CCN(CC(=O)O)CC1)C(=O)Nc1ccc(C(=O)NCCC[C@@H]2C(=O)N[C@@H](CCCNC(=N)N)C(=O)N[C@@H](Cc3ccc4ccccc4c3)C(=O)NCC(=O)N[C@H](Cc3ccc(O)cc3)C(=O)N2C)cc1 [[^177Lu]DOTA-r-a-ABA-CPCR4, metal not drawn] (cyclo([2Nal]G[dY][dNMeOrn]([4Abz-dA-dR-DOTA])R))
